Entries after “also recorded” stand apart in the source; their conditions may differ.
Assays:
[1] = target: T1, recombinant human PLP binding protein (PLPBP, UniProt 094903) (Homo sapiens, UniProt O94903); assay: Gel-based labeling of recombinant PLPBP with PLxP probes (fluorescence SDS-PAGE); details: for labeling of recombinant PLPBP by PLP cofactor mimic: 1 μM PLPBP, 100 μM probe, 1 h r.t., NaBH4 reduction, click to Cy5, fluorescence SDS-Page
T1 construct: made in house; host or cells: E. coli Rosetta2 (DE3)
T1 sequence (O94903 whole entry): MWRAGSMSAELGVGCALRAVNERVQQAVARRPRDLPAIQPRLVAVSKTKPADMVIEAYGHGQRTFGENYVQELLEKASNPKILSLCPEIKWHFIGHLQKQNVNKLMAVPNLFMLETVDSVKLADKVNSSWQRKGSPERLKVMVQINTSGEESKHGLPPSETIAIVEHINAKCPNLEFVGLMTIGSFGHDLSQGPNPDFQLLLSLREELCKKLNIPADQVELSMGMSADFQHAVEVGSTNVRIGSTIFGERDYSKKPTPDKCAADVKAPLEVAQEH
Description: Conditions: 1 μM PLPBP, 100 μM probe (incubation 1 h, r.t.), reduction (NaBH4), precipitation (Aceton), wash (MeOH), redissolve in PBS+0.2% SDS, click to Cy5. Analysis via fluorescence SDS-Page.
Structures of the different PLP probes PL1P, PL2P and PL13P (top) that were tested for their labeling efficiency of recombinant PLP binding protein (PLPBP), separately and all three in combination on a fluorescent SDS gel (bottom). The denaturation of PLPBP via increased temperature (heat control, h.c.) prior to labeling with the combination of probes served as negative control. FM=fluorescent marker.
In brief, PLPBP (1 μM in PBS, total volume: 50 μL) was labeled with PLxP probe or mixture of PLxP probes (PL1P, PL2P, PL13P, final conc. 100 μM) at room temperature for 30 min. Upon reduction with […] NaBH4 (1 μl of 250 mM prepared fresh in 0.1 M NaOH) at room temperature for 30 min, proteins were precipitated by adding ice-cold acetone (4× volume) and incubating at −20° C. for at least 1 h. Precipitated proteins were pelletized by centrifugation (18,000×g, 15 min, 4° C.) and washed two times with ice-cold MeOH. For washing, protein pellet is resuspended in 0.2 mL cold methanol (−80° C.) by mild sonication (10 s, 10% intensity) and centrifuged (10 000 rpm, 10 min, 4° C.). Pelletized proteins were resuspended in 50 μl PBS containing […] SDS and Click chemistry was performed by adding 100 μM Cy5 azide (1 μL of 5 mM in DMSO), 100 μM TBTA (3 μL of 1.67 mM in/BuOH/DMSO 80:20), 1 mM TCEP (0.5 μL of 15 mg/mL stock in ddH2O) and 1 mM CuSO4 (1 μL of 50 mM stock in ddH2O) to each sample and incubated for at least 1 h at r.t. Samples were quenched with 2× Lämmli buffer and analysed by SDS-PAGE (12.5% polyacrylamide gels) with subsequent fluorescence scanning.
For this, we selected recombinant human PLP binding protein (PLPBP, UniProt 094903) as a medium abundant model PLP-DE of human erythrocytes.
Conditions: 1 μM PLPBP, 100 μM probe (incubation 1 h, r.t.), reduction (NaBH4), precipitation (aceton), wash (MeOH), redissolve in PBS+0.2% SDS, click to Cy5. Analysis via fluorescence SDS-Page. Results see FIG. 6.

[2] = target: T2, recombinant SHMT1 (Homo sapiens, UniProt P34896); assay: Microarray readout of PL2P probe signal on recombinant SHMT1 preincubated with PLP; assay type: binding; details: apoSHMT1 preincubated with 0.5-4.0 eq PLP, fixed with NaBH4, 100 μM PL2P, click to rhodamine azide
T2 construct: made in house; host or cells: E. coli Rosetta2 (DE3)
T2 sequence (P34896 1-483): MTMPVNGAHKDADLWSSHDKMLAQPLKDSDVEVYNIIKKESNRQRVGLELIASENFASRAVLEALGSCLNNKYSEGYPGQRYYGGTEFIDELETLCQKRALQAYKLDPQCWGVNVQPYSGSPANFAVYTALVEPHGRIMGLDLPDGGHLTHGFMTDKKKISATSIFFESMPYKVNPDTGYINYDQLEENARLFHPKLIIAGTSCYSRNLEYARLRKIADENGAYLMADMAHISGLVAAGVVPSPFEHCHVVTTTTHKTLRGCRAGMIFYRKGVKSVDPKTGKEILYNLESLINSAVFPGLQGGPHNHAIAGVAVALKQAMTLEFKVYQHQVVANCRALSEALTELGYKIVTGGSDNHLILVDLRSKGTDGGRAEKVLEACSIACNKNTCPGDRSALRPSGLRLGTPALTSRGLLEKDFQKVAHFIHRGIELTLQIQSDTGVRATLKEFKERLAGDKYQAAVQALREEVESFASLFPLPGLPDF
Description: FIG. 11. Signal intensity is dependent on saturation level of PLP-DE with PLP. • (A) PLP loading states of recombinant SHMT1 incubated with increasing equivalents (eq) of PLP were determined by intact protein-MS (n=3) as described previously (Hoegl et al., 2018). • (B) Microarray read out of recombinant SHMT1 bound PL2P probe signals preincubated with PLP equivalents in a physiological range of 0.5-4.0 eq. Mean signal intensities of anti-SHMT1 (n=8) corrected to BSA control and error bars (SD) after fluorescent readout of anti-SHMT1 3. Sample preparation according to workflow 3, as described in the Examples.
40 μM apoSHMT1 (25 μL) samples were incubated with increasing amounts of PLP (0 eq., 0.50 eq., 1.00 eq., 4.00 eq., 32.0 eq.) for 1 h at r.t. and subsequently treated with 20 mM NaBH4 (250 mM stock solution in 0.1 M NaOH) for 30 min at r.t. Reduction was quenched by adding cold acetone (4× volume of sample, −20° C.) for at least 1 h. Precipitated proteins were pelletized (10 000 rpm, 15 min, 4° C.) and supernatant was discarded. […] Samples are subsequently incubated and analysed on the microarrays. […]
The samples were analysed in a single colour approach (without secondary antibody incubation) or dual-colour approach (with secondary antibody incubation) using custom microarrays containing antibodies against OAT, SHMT and PLPBP or a subset of these antibodies. […]

Row | Molecule | labeling of recombinant PLPBP by PLP cofactor mimic [1] | PL2P probe signal intensity on microarray with increasing PLP saturation of SHMT1 [2] | most suitable PLP cofactor mimic for labeling of recombinant PLPBP ([1]; comparison of PL1P, PL2P, PL13P via SDS-Page)
1 | C#Cc1ncc(COP(=O)(O)O)c(C=O)c1O [PL1P, (6-ethynyl-4-formyl-5-hydroxypyridin-3-yl)methyl phosphate] | successfully tested | – | –
2 | Cc1ncc(COP(=O)(O)O)c(C=O)c1O [PLP, pyridoxal phosphate] | – | decrease in signal intensity; also recorded: decline in signal intensity | –
3 | (4-formyl-6-methyl-5-(prop-2-yn-1-yloxy)pyridin-3-yl)methyl phosphate [PL13P] | successfully tested | – | –
4 | (6-(but-3-yn-1-yl)-4-formyl-5-hydroxypyridin-3-yl)methyl phosphate [PL2P] | successfully tested | – | most suitable
